EC50 data for 26 compounds are collected here from US11136321B2, “Tricyclic compounds” (ALIGOS THERAPEUTICS, INC., priority 2019, dated 2021).

pEC50: −log10 of the molar value. A value given as a limit tells only on which side of the number the result lay.

Broadly, the pEC50 is the negative decadic logarithm of the EC50, by convention in mol/L.

One assay has as its system HBV. Briefly: HBV-DNA antiviral assay using HepG2.117 cells. The format is cell-based, genotype D HBV. As to conditions: Hepatitis B virus, 72 h, intracellular HBV DNA by qPCR, 3 days incubation. An outline of the steps:
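HepG2.117 cells (genotype D HBV, Tet-off) seeded without doxycycline and treated for 3 days at 9 concentrations (4-fold dilutions) in 2% DMSO. Intracellular HBV DNA measured by qPCR against a standard curve, with viability from ATPlite run in parallel. EC50, EC90 and CC50 fitted relative to DMSO controls.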
A general note: Real-time PCR tracks product formation cycle by cycle.
Compound `CNC(=O)c1ccc(-n2c(=O)c3c(n4ncc(NCc5ccc(OCC(N)=O)cc5)c24)CN(C(=O)c2ccc(Br)c(Cl)c2)CC3)cc1` [Compound 52, 4-[5-[[4-(2-amino-2-oxo-ethoxy)phenyl]methylamino]-12-(4-bromo-3-chloro-benzoyl)-8-oxo-2,3,7,12-tetrazatricyclo [7.4.0.0 2,6]trideca-1(9),3,5-trien-7-yl]-N-methyl-benzamide] showed a pEC50 of 6.30 to 7.00.

For the compound `N#Cc1cc(C(=O)N2CCc3c(n4ncc(Cc5ccccc5)c4n(-c4ccc(-c5ncc[nH]5)cc4)c3=O)C2)ccc1Br` [Compound 73, 5-[5-benzyl-7-[4-(1H-imidazol-2-yl)phenyl]-8-oxo-2,3,7,12-tetrazatricyclo [7.4.0.0 2,6]trideca-1(9),3,5-triene-12-carbonyl]-2-bromo-benzonitrile], the pEC50 is 5.30 to 6.30.

In turn, `COc1ccc(-n2c(=O)c3c(n4ncc(NC(=O)c5ccccc5)c24)CN(C(=O)c2ccc(Br)c(Cl)c2)CC3)cc1` [Compound 30, N-[12-(4-bromo-3-chloro-benzoyl)-7-(4-methoxyphenyl)-8-oxo-2,3,7,12-tetrazatricyclo [7.4.0.0 2,6]trideca-1(9),3,5-trien-5-yl] benzamide] showed a pEC50 of 6.30 to 7.00.

In turn, `CC(C)NC(=O)c1ccc(-n2c(=O)c3c(n4ncc(Cc5ccccc5)c24)CN(C(=O)c2ccc(Br)c(Cl)c2)CC3)cc1` [Compound 64, 4-[5-benzyl-12-(4-bromo-3-chloro-benzoyl)-8-oxo-2,3,7,12-tetrazatricyclo [7.4.0.0 2,6]trideca-1(9),3,5-trien-7-yl]-N-isopropyl-benzamide] showed a pEC50 of 5.30 to 6.30.

`CC(C)CNc1cnn2c3c(c(=O)n(-c4ccccc4)c12)CCN(C(=O)c1ccc(Cl)c(Cl)c1)C3` [Compound 15, 12-(3,4-dichlorobenzoyl)-5-(isobutylamino)-7-phenyl-2,3,7,12-tetrazatricyclo [7.4.0.0^2,6] trideca-1(9),3,5-trien-8-one]: the pEC50 was under 5.30.

In the case of `CNC(=O)c1ccc(-n2c(=O)c3c(n4ncc(NCc5ccc(OC(F)(F)F)cc5)c24)CN(C(=O)c2ccc(Cl)c(Cl)c2)CC3)cc1` [Compound 44, 4-[12-(3,4-dichlorobenzoyl)-8-oxo-5-[[4-(trifluoromethoxy)phenyl]methylamino]-2,3,7,12-tetrazatricyclo [7.4.0.0 2,6]trideca-1(9),3,5-trien-7-yl]-N-methyl-benzamide], the pEC50 was 6.30 to 7.00.

Take `CNC(=O)c1ccc(-n2c(=O)c3c(n4ncc(NCc5ccc(C#N)cc5)c24)CN(C(=O)c2ccc(Cl)c(Cl)c2)CC3)cc1` [Compound 51, 4-[5-[(4-cyanophenyl)methylamino]-12-(3,4-dichlorobenzoyl)-8-oxo-2,3,7,12-tetrazatricyclo [7.4.0.0 2,6]trideca-1(9),3,5-trien-7-yl]-N-methyl-benzamide]: the negative-log EC50 (pEC50) is 5.30 to 6.30.

With `CC(C)c1cnn2c3c(c(=O)n(-c4ccccc4)c12)CCN(C(=O)c1ccc(Br)c(Cl)c1)C3` [Compound 13, 12-(4-bromo-3-chlorobenzoyl)-5-isopropyl-7-phenyl-2,3,7,12-tetraazatricyclo[7.4.0.0^[2,6]]trideca-1(9),3,5-trien-8-one], the pEC50 was 5.30 to 6.30.

Turning to `N#Cc1cc(C(=O)N2CCc3c(n4ncc(Cc5ccccc5)c4n(-c4ccc(-n5cccn5)cc4)c3=O)C2)ccc1Br` [Compound 78, 5-[5-benzyl-8-oxo-7-(4-pyrazol-1-ylphenyl)-2,3,7,12-tetrazatricyclo [7.4.0.0 2,6]trideca-1(9),3,5-triene-12-carbonyl]-2-bromo-benzonitrile], the pEC50 was under 5.30.

Consider `CNC(=O)c1ccc(-n2c(=O)c3c(n4ncc(NCc5ccccc5)c24)CN(C(=O)c2ccc(Cl)c(Cl)c2)CC3)cc1` [Compound 42, 4-[5-(benzylamino)-12-(3,4-dichlorobenzoyl)-8-oxo-2,3,7,12-tetrazatricyclo [7.4.0.0 2,6]trideca-1(9),3,5-trien-7-yl]-N-methyl-benzamide], for which the pEC50 was at least 7.00.

Compound `CNC(=O)c1ccc(-n2c(=O)c3c(n4ncc(NCc5ccc(F)cc5)c24)CN(C(=O)c2ccc(Br)c(Cl)c2)CC3)cc1` [Compound 67, 4-[12-(4-bromo-3-chloro-benzoyl)-5-[(4-fluorophenyl)methylamino]-8-oxo-2,3,7,12-tetrazatricyclo [7.4.0.0 2,6]trideca-1(9),3,5-trien-7-yl]-N-methyl-benzamide] had a pEC50 of at least 7.00.

The compound `CNC(=O)c1ccc(-n2c(=O)c3c(n4ncc(Cc5ccc(C#N)cc5)c24)CN(C(=O)c2ccc(Br)c(Cl)c2)CC3)cc1` [Compound 43, 4-(8-(4-bromo-3-chlorobenzoyl)-3-(4-cyanobenzyl)-5-oxo-6,7,8,9-tetrahydropyrazolo[1,5-a]pyrido[4,3-e]pyrimidin-4(5H)-yl)-N-methylbenzamide] gave a negative logarithm of the EC50 (pEC50) of at least 7.00.

The compound `CNC(=O)c1ccc(-n2c(=O)c3c(n4ncc(Cc5ccccc5)c24)CN(C(=O)c2ccc(Br)c(Cl)c2)CC3)cc1Cl` [Compound 38, 4-[5-benzyl-12-(4-bromo-3-chloro-benzoyl)-8-oxo-2,3,7,12-tetrazatricyclo [7.4.0.0 2,6]trideca-1(9),3,5-trien-7-yl]-2-chloro-N-methyl-benzamide] gave a pEC50 of at least 7.00.

`CNC(=O)c1ccc(-n2c(=O)c3c(n4ncc(Cc5ccccc5)c24)CN(C(=O)c2ccc(Br)c(C#N)c2)[C@H](C)C3)cc1` (stereo in doubt) [Compound 81, N-methyl-4-[rac-(11R)-5-benzyl-12-(4-bromo-3-cyano-benzoyl)-11-methyl-8-oxo-2,3,7,12-tetrazatricyclo [7.4.0.0 2,6]trideca-1(9),3,5-trien-7-yl] benzamide] gave a pEC50 of at least 7.00.

As for `CNC(=O)c1ccc(-n2c(=O)c3c(n4ncc(Nc5ccccc5)c24)CN(C(=O)c2ccc(Cl)c(Cl)c2)CC3)cc1` [Compound 39, 4-[5-anilino-12-(3,4-dichlorobenzoyl)-8-oxo-2,3,7,12-tetrazatricyclo [7.4.0.0 2,6]trideca-1(9),3,5-trien-7-yl]-N-methyl-benzamide], the pEC50 is at least 7.00.

Compound `CNC(=O)c1ccc(-n2c(=O)c3c(n4ncc(Cc5ccccc5)c24)CN(C(=O)c2ccc(Br)cn2)CC3)cc1` [Compound 56, 4-[5-benzyl-12-(5-bromopyridine-2-carbonyl)-8-oxo-2,3,7,12-tetrazatricyclo [7.4.0.0 2,6]trideca-1(9),3,5-trien-7-yl]-N-methyl-benzamide] showed a pEC50 of 5.30 to 6.30.

Compound `CNC(=O)c1ccc(-n2c(=O)c3c(n4ncc(Nc5ccc(F)cc5)c24)CN(C(=O)c2ccc(Br)c(C#N)c2)CC3)cc1` [Compound 63, 4-[12-(4-bromo-3-cyano-benzoyl)-5-(4-fluoroanilino)-8-oxo-2,3,7,12-tetrazatricyclo [7.4.0.0 2,6]trideca-1(9),3,5-trien-7-yl]-N-methyl-benzamide] had a pEC50 of 6.30 to 7.00.

`O=C(c1ccc(Br)c(Cl)c1)N1CCc2c(n3ncc(Cc4ccccc4)c3n(-c3ccc(-c4ncc[nH]4)cc3)c2=O)C1` [Compound 90, 5-benzyl-12-(4-bromo-3-chloro-benzoyl)-7-[4-(1H-imidazol-2-yl)phenyl]-2,3,7,12-tetrazatricyclo [7.4.0.0 2,6] trideca-1(9),3,5-trien-8-one] showed a pEC50 of 5.30 to 6.30.

In the case of `CNC(=O)c1ccc(-n2c(=O)c3c(n4ncc(Cc5ccc(C#N)cc5F)c24)CN(C(=O)c2ccc(Br)c(Cl)c2)CC3)cc1` [Compound 85, 4-[12-(4-bromo-3-chloro-benzoyl)-5-[(4-cyano-2-fluoro-phenyl)methyl]-8-oxo-2,3,7,12-tetrazatricyclo [7.4.0.0 2,6]trideca-1(9),3,5-trien-7-yl]-N-methyl-benzamide], the pEC50 is at least 7.00.

As for `N#Cc1cc(C(=O)N2CCc3c(n4ncc(Cc5ccccc5)c4n(-c4ccc(C(=O)NC5CC5)cc4)c3=O)C2)ccc1Br` [Compound 76, 4-[5-benzyl-12-(4-bromo-3-cyano-benzoyl)-8-oxo-2,3,7,12-tetrazatricyclo [7.4.0.0 2,6]trideca-1(9),3,5-trien-7-yl]-N-cyclopropyl-benzamide], the pEC50 was under 5.30.

`Cn1c(=O)c2c(n3nccc13)CN(C(=O)Nc1ccc(F)c(Cl)c1)CC2` [Compound 1, N-(3-chloro-4-fluorophenyl)-4-methyl-5-oxo-5,6,7,9-tetrahydropyrazolo[1,5-a]pyrido[4,3-e]pyrimidine-8(4H)-carboxamide]: the pEC50 was 5.30 to 6.30.

Staying with this assay, now noted: intracellular HBV DNA by qPCR, 3 days incubation.
With `COc1ccc(-n2c(=O)c3c(n4ncc(NC(C)=O)c24)CN(C(=O)c2ccc(Cl)c(Cl)c2)CC3)cc1` [Compound 21, N-[12-(3,4-dichlorobenzoyl)-7-(4-methoxyphenyl)-8-oxo-2,3,7,12-tetrazatricyclo [7.4.0.0^2,6]trideca-1(9),3,5-trien-5-yl]acetamide], the pEC50 was under 5.30.

Compound `O=C(c1ccc(Cl)c(Cl)c1)N1CCc2c(n3ncc(NCc4ccccc4)c3n(-c3ccccc3)c2=O)C1` [Compound 18, 5-(benzylamino)-12-(3,4-dichlorobenzoyl)-7-phenyl-2,3,7,12-tetraazatricyclo[7.4.0.0^[2,6]]trideca-1(9),3,5-trien-8-one] gave a negative logarithm of the EC50 (pEC50) of 5.30 to 6.30.

Consider `COc1ccc(-n2c(=O)c3c(n4ncc(Cc5ccccc5)c24)CN(C(=O)c2ccc(Cl)c(Cl)c2)CC3)cc1` [Compound 24, 5-benzyl-12-(3,4-dichlorobenzoyl)-7-(4-methoxyphenyl)-2,3,7,12-tetraazatricyclo[7.4.0.0^[2,6]]trideca-1(9),3,5-trien-8-one], for which the pEC50 is 6.30 to 7.00.

For the compound `COc1ccc(-n2c(=O)c3c(n4ncc(NC(=O)C(C)C)c24)CN(C(=O)c2ccc(Cl)c(Cl)c2)CC3)cc1` [Compound 22, N-[12-(3,4-dichlorobenzoyl)-7-(4-methoxyphenyl)-8-oxo-2,3,7,12-tetrazatricyclo [7.4.0.0^2,6]trideca-1(9),3,5-trien-5-yl]-2-methyl-propanamide], the pEC50 was under 5.30.

Compound `Cc1cc2n(-c3ccccc3)c(=O)c3c(n2n1)CN(C(=O)c1ccc(Br)c(F)c1)CC3` [Compound 7, 12-(4-bromo-3-fluorobenzoyl)-4-methyl-7-phenyl-2,3,7,12-tetraazatricyclo[7.4.0.0^[2,6]]trideca-1(9),3,5-trien-8-one] had a pEC50 of under 5.30.
